Assays:
BHK21 = experiment: Toxicity of NAC-MTN vs CD-MTN and MTN, MTT (Example 9, EX042105); assay type: cell-based, hamster
Experimental: FIG. 4. […] The relative toxicity of NAC-MTN was compared with MTN and CD-MTN in four cell lines, MCF7(breast cancer), COS7green monkey kidney (SV40 transformed), 3T3 (mouse fibroblast), and BHK21(hamster kidney). Cells were treated with identical amounts of MTN formulated as either NAC-MTN, MTN only, or poly-beta-cyclodextrin-sulfylbutylether(CD-MTN). After an incubation period, cell viability was assayed with MTT assay. The differences in toxicity between NAC-MTN and MTN or NAC-MTN and CD-MTN are shown as % difference. Greater percentage difference correlates to more reduction in relative NAC-MTN toxicity.
MCF7, COS7, 3T3, and BHK21 cells were plated out in duplicate rows of equivalent cell density in 100ul final volume. Initial cell densities were 2000 cells/well.
Preparing NAC-MTN, CD-MTN, and MTN only. Combined 180 ul of 0.05 mg/ml MTN with […] 0.1 mg/ml herring sperm genomic DNA (HSGDNA, Promega), 1500 ul of 2× DMEM media containing 20% FBS to give 3.0 ml final volume and 12% final drug loading in the dsDNA. For MTN only, 180 ul of MTN was combined with 1320 ul H2O and 1500 ul 2× DMEM. […]
Aspirated media in plate and replaced with 50 ul of 0.5 mg/ml MTT in 1× media, incubated 3 hours, aspirated, air dried 5 min and dissolved in 100 ul of isopropyl, read OD at A570. […]

[1] = Column chromatography determination of drug loading limit of NAC-drug; assay type: physicochemical; conditions: Drug only (MTN, no carrier)
Text: In a dosage form suitable for parenteral administration, the nucleic acid can be combined with the drug in an aqueous formulation of saline, dextrose or other suitable aqueous vehicle suitable for administration. It is preferred that the drug and the nucleic acid are combined in water or other suitable medium, prior to dilution in saline or media, in order to prevent inhibition of drug binding to the nucleic acid. The dosage form can be sterilized by a variety of means, and can optionally take the form of a concentrate that can be diluted in saline or other suitable vehicle prior to injection. It is preferred to minimize the amount of free drug in the injectable solution, such that the mass ratio of nucleic acid to drug is sufficient to bind most of the drug, and to limit free drug in the bloodstream. […] The percentage loading possible for other nucleic acid binding drugs will vary depending on their binding characteristics, and can be determined by column chromatography, spectrophotometry, and cytotoxicity assay methods as described herein. […]
Determination of drug loading limit of mitoxantrone (MTN) in a nucleic acid carrier (NAC) using a 2.5×9 cm G25 column (EX031904) and herring sperm DNA (HSDNA approx. range 10-100 bp Sigma-Aldrich). […] Collected 5 ml and checked absorbance scan of 0.2 ml sample on Synergy HT1. […] Collected 7.5 ml and read absorbance scan of 0.2 ml sample. […]

Compound: O=C1c2c(O)ccc(O)c2C(=O)c2c(NCCNCCO)ccc(NCCNCCO)c21 [MTN, mitoxantrone]
- % tox. relative to media only (BHK21; 2 uM final MTN, MTT 48 hours after adding samples): 51.76%
- toxicity (est.) (BHK21; after 20-24 hour incubation with MTN, 2 uM): ~50%
- G25 Column Results [1]: Single band, slow
